Test results taken from the supplement of paper PMC11962398.

Compound: T1, C[C@H]1CNCCN1c1nccc(-c2noc3c2CCC[C@@]32CCCc3sc(N)c(C#N)c32)n1 [BI-2493]
Assay: not given
Conditions: 5 days
Description: (§1)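 PRISM pooled barcoded cancer cell line viability screen (Broad Institute) with BI-2493 at 8 doses in threefold dilutions from 0.00457 to 10 µmol/L, 5-day treatment; curves fitted per cell line. IC50 is undefined (placeholder) for resistant lines. AUC is capped at 1, and sensitivity is reported as 1 − AUC.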

Row | Test System | IC50 of cell viability
1 | NCIH2009_LUNG | 5.8 µM
2 | HCC44_LUNG | 1.66 µM
3 | IGR1_SKIN | 7.02 µM
4 | TFK1_BILIARY_TRACT | 2.89 µM
5 | WERIRB1_AUTONOMIC_GANGLIA | 9.33 µM
6 | MDST8_LARGE_INTESTINE | 9.82 µM
7 | C75_LARGE_INTESTINE | 9.28 µM
8 | JHH4_LIVER | 6.96 µM
9 | TE9_OESOPHAGUS | 5.83 µM
10 | UACC62_SKIN | 9.21 µM
11 | SW1573_LUNG | 7.72 µM
12 | HCA1_CERVIX | 4.58 µM
13 | LNZ308_CENTRAL_NERVOUS_SYSTEM | 7.52 µM
14 | SNU61_LARGE_INTESTINE | 0.465 µM
15 | JHOC5_OVARY | 5.69 µM
16 | OVISE_OVARY | 4.17 µM
17 | RCM1_LARGE_INTESTINE | 1.73 µM
18 | VAL_HAEMATOPOIETIC_AND_LYMPHOID_TISSUE | 3.46 µM
19 | KD_SOFT_TISSUE | 3.6 µM
20 | SQ1_LUNG | 3.68 µM

Row | Test System | IC50 of cell viability
21 | CCSW1_BILIARY_TRACT | 5.45 µM
22 | YSCCC_BILIARY_TRACT | 5.65 µM
23 | LNCAPCLONEFGC_PROSTATE | 3.64 µM
24 | GI1_CENTRAL_NERVOUS_SYSTEM | 3.59 µM
25 | SKGII_ENDOMETRIUM | 8.23 µM
26 | KNS81_CENTRAL_NERVOUS_SYSTEM | 6.64 µM
27 | SW1353_BONE | > 10 µM
28 | KYSE70_OESOPHAGUS | 5.15 µM
29 | HCSC1_CERVIX | 9.79 µM
30 | SNU119_OVARY | 5.65 µM
31 | KMS12BM_HAEMATOPOIETIC_AND_LYMPHOID_TISSUE | 3.71 µM
32 | ICC137_BILIARY_TRACT | 7.76 µM
33 | KKU100_BILIARY_TRACT | 2.61 µM
34 | SSP25_BILIARY_TRACT | 8.5 µM
35 | KPNYN_AUTONOMIC_GANGLIA | > 10 µM
36 | KNS62_LUNG | 1.79 µM
37 | RERFGC1B_STOMACH | 3.33 µM
38 | BICR6_UPPER_AERODIGESTIVE_TRACT | 4 µM
39 | HS683_CENTRAL_NERVOUS_SYSTEM | 9.89 µM
40 | SNU2372_BREAST | 6.37 µM

Row | Test System | IC50 of cell viability
41 | JOPACA1_PANCREAS | 4.96 µM
42 | SCC25_UPPER_AERODIGESTIVE_TRACT | 5.3 µM
43 | HUH6_LIVER | 6.78 µM
44 | LAMA84_HAEMATOPOIETIC_AND_LYMPHOID_TISSUE | 0.76 µM
45 | LPS141_SOFT_TISSUE | > 10 µM
46 | HCC515_LUNG | 5.55 µM
47 | HCC1438_LUNG | > 10 µM
48 | AM38_CENTRAL_NERVOUS_SYSTEM | 4.3 µM
49 | 22RV1_PROSTATE | 5.65 µM
50 | MEL285_UVEA | 6.23 µM
51 | MFE280_ENDOMETRIUM | > 10 µM
52 | OSRC2_KIDNEY | 4.48 µM
53 | TGBC18TKB_LARGE_INTESTINE | 9.22 µM
54 | 253JBV_URINARY_TRACT | 6.75 µM
55 | SHMAC5_PROSTATE | 3.3 µM
56 | K562_HAEMATOPOIETIC_AND_LYMPHOID_TISSUE | 7.18 µM
57 | BV173_HAEMATOPOIETIC_AND_LYMPHOID_TISSUE | 1.67 µM
58 | SW156_KIDNEY | 9.51 µM
59 | RT4_URINARY_TRACT | 5.51 µM
60 | HEL9217_HAEMATOPOIETIC_AND_LYMPHOID_TISSUE | 4.27 µM

Compound: T1, BI-2493
Assay: 1 - AUC of viability dose-response curve (sensitivity) (fraction); higher = more sensitive
Conditions: 5 days
Description: as §1

Row | Test System | 1 - AUC of viability dose-response curve
61 | NCIH2009_LUNG | 0.149
62 | HCC44_LUNG | 0.257
63 | IGR1_SKIN | 0.0813
64 | TFK1_BILIARY_TRACT | 0.173
65 | WERIRB1_AUTONOMIC_GANGLIA | 0.052
66 | MDST8_LARGE_INTESTINE | 0.00776
67 | C75_LARGE_INTESTINE | 0.22
68 | JHH4_LIVER | 0.071
69 | TE9_OESOPHAGUS | 0.107
70 | UACC62_SKIN | 0.0436
71 | SW1573_LUNG | 0.108
72 | HCA1_CERVIX | 0.132
73 | LNZ308_CENTRAL_NERVOUS_SYSTEM | 0.142
74 | SNU61_LARGE_INTESTINE | 0.307
75 | JHOC5_OVARY | 0.139
76 | OVISE_OVARY | 0.105
77 | RCM1_LARGE_INTESTINE | 0.271
78 | VAL_HAEMATOPOIETIC_AND_LYMPHOID_TISSUE | 0.136
79 | KD_SOFT_TISSUE | 0.114
80 | SQ1_LUNG | 0.153

Row | Test System | 1 - AUC of viability dose-response curve
81 | CCSW1_BILIARY_TRACT | 0.14
82 | YSCCC_BILIARY_TRACT | 0.104
83 | LNCAPCLONEFGC_PROSTATE | 0.152
84 | GI1_CENTRAL_NERVOUS_SYSTEM | 0.132
85 | SKGII_ENDOMETRIUM | 0.0529
86 | KNS81_CENTRAL_NERVOUS_SYSTEM | 0.0832
87 | SW1353_BONE | 0.032
88 | KYSE70_OESOPHAGUS | 0.163
89 | HCSC1_CERVIX | 0.0229
90 | SNU119_OVARY | 0.162
91 | KMS12BM_HAEMATOPOIETIC_AND_LYMPHOID_TISSUE | 0.108
92 | ICC137_BILIARY_TRACT | 0.116
93 | KKU100_BILIARY_TRACT | 0.182
94 | SSP25_BILIARY_TRACT | 0.11
95 | KPNYN_AUTONOMIC_GANGLIA | 0.144
96 | KNS62_LUNG | 0.271
97 | RERFGC1B_STOMACH | 0.262
98 | BICR6_UPPER_AERODIGESTIVE_TRACT | 0.178
99 | HS683_CENTRAL_NERVOUS_SYSTEM | 0.0105
100 | SNU2372_BREAST | 0.0682

Row | Test System | 1 - AUC of viability dose-response curve
101 | JOPACA1_PANCREAS | 0.107
102 | SCC25_UPPER_AERODIGESTIVE_TRACT | 0.128
103 | HUH6_LIVER | 0.0714
104 | LAMA84_HAEMATOPOIETIC_AND_LYMPHOID_TISSUE | 0.34
105 | LPS141_SOFT_TISSUE | 0.0281
106 | HCC515_LUNG | 0.103
107 | HCC1438_LUNG | < 0
108 | AM38_CENTRAL_NERVOUS_SYSTEM | 0.101
109 | 22RV1_PROSTATE | 0.111
110 | MEL285_UVEA | 0.145
111 | MFE280_ENDOMETRIUM | 0.18
112 | OSRC2_KIDNEY | 0.0909
113 | TGBC18TKB_LARGE_INTESTINE | 0.103
114 | 253JBV_URINARY_TRACT | 0.0713
115 | SHMAC5_PROSTATE | 0.118
116 | K562_HAEMATOPOIETIC_AND_LYMPHOID_TISSUE | 0.0609
117 | BV173_HAEMATOPOIETIC_AND_LYMPHOID_TISSUE | 0.344
118 | SW156_KIDNEY | 0.0358
119 | RT4_URINARY_TRACT | 0.147
120 | HEL9217_HAEMATOPOIETIC_AND_LYMPHOID_TISSUE | 0.173
